Results: ChEMBL document CHEMBL1141234, “Synthesis and SAR of highly potent dual 5-HT1A and 5-HT1B antagonists as potential antidepressant drugs” (Bioorg Med Chem Lett, 2005)
Calls of active or inactive are those of the source. No cut-off for these calls is given here.

Experiments:
[1] = target: T1, 5-hydroxytryptamine receptor 1A (Homo sapiens, UniProt P08908); assay: Displacement of [35S]GTP-gamma-S from human recombinant 5HT1A receptor; assay type: functional
T1 sequence (P08908 whole entry): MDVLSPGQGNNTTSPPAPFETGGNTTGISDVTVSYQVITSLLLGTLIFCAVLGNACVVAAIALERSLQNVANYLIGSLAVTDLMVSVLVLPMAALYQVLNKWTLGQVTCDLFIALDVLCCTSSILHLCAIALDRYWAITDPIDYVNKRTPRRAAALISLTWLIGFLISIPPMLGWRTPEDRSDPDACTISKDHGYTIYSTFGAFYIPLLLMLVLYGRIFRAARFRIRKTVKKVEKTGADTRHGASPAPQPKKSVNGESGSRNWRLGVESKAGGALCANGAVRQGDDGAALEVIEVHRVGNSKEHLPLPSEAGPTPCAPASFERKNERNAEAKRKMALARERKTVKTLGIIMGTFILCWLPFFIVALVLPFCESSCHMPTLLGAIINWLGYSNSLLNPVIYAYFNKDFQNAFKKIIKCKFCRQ

[2] = target: T2, 5-hydroxytryptamine receptor 1B (Homo sapiens, UniProt P28222); assay: Inhibitory activity against human recombinant 5HT1B receptor co-expressed with G-protein chimera Gqo5 in HEK293 cells by FLIPR; assay type: functional, cell-based
[3] = target: T3, Adrenergic receptor alpha-1 (Homo sapiens, UniProt P35348+P25100+P35368); assay: Inhibitory activity against Adrenergic alpha-1 receptor; assay type: protein assay
T3 sequence (P35348 whole entry): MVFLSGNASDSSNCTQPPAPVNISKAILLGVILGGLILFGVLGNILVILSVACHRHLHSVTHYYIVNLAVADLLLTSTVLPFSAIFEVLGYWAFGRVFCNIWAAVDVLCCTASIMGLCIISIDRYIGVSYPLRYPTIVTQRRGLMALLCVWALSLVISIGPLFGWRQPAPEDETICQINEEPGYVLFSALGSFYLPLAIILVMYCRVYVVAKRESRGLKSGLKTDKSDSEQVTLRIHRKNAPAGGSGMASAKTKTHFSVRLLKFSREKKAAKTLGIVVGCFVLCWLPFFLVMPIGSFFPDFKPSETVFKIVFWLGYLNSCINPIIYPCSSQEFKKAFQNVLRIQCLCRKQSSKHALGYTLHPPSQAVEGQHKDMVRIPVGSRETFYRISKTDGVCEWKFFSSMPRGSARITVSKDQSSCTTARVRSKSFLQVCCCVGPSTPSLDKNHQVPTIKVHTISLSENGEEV
T3 sequence (P25100 whole entry): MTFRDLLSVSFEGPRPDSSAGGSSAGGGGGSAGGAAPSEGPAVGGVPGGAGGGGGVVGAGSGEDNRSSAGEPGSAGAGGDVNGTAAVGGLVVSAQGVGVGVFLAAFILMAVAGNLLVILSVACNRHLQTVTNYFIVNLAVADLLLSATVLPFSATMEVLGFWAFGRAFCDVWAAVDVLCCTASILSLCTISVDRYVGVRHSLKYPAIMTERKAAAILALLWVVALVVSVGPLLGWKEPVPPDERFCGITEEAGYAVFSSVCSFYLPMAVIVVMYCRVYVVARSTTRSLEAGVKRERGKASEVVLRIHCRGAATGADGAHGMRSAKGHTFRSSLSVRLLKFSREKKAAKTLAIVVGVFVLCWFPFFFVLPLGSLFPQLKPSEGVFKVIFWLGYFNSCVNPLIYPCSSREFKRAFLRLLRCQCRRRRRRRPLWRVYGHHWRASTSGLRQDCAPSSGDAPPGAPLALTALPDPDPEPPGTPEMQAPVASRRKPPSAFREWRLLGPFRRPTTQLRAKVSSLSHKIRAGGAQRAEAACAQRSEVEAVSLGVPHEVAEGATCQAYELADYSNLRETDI
T3 sequence (P35368 whole entry): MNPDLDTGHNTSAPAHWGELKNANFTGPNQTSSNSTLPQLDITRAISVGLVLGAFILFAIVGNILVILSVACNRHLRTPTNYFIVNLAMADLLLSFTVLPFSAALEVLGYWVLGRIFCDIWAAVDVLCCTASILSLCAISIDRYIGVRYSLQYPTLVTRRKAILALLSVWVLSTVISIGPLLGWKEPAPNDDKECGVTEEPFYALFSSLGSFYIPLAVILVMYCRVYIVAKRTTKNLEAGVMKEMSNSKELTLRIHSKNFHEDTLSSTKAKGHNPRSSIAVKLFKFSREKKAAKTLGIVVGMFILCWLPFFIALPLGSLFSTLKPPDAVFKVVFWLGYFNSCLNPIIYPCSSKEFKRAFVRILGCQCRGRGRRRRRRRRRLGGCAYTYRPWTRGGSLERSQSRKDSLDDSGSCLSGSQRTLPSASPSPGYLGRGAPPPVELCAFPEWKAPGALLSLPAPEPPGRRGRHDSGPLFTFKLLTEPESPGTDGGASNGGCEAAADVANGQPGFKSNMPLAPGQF

[4] = target: T4, 5-hydroxytryptamine receptor 1A (Rattus norvegicus, UniProt P19327); assay: Binding affinity for rat 5HT1A receptor
T4 sequence (P19327 whole entry): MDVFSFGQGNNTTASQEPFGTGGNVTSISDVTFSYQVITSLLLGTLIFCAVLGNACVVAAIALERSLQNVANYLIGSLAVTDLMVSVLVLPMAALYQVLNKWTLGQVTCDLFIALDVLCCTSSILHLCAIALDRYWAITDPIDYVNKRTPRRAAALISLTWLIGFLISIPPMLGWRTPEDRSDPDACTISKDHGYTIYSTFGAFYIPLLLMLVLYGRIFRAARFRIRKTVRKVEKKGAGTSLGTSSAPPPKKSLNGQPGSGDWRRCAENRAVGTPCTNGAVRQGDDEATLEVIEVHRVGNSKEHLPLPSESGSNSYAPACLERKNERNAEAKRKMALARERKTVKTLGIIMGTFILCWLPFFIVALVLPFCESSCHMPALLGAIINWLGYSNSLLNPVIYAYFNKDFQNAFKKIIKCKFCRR

[5] = target: 5-hydroxytryptamine receptor 1B (Rattus norvegicus, UniProt P28564); assay: Binding affinity for rat 5HT1B receptor
[6] = target: T2, 5-hydroxytryptamine receptor 1B; assay: Intrinsic activity for 5HT1B receptor in FLIPR assay; assay type: functional
[7] = target: T5, 5-hydroxytryptamine receptor 1A (Homo sapiens) (UniProt P08908); assay: Intrinsic activity for 5HT1A receptor in [35S]GTP-gamma-S assay; assay type: functional
T5 sequence (whole entry): T1 sequence (P08908 whole entry)

[8] = target: T6, 5-hydroxytryptamine receptor 2C (Homo sapiens, UniProt P28335); assay: Inhibitory activity against 5HT2C receptor
T6 sequence (P28335 whole entry): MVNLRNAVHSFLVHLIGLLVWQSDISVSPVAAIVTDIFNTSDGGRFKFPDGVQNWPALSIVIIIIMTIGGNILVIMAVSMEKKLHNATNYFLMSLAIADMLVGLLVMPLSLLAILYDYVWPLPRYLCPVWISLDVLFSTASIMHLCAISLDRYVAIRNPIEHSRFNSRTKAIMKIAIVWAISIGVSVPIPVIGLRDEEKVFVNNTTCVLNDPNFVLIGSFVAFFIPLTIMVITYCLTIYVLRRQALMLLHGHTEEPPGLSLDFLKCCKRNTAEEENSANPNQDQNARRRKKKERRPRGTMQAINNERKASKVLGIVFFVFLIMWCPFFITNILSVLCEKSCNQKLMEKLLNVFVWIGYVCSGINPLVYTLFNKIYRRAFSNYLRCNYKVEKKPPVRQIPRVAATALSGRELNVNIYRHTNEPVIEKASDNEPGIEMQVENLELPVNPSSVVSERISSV

[9] = target: 5-hydroxytryptamine receptor 5A (Homo sapiens, UniProt P47898); assay: Inhibitory activity against 5HT5A receptor
[10] = target: 5-hydroxytryptamine receptor 7 (Homo sapiens, UniProt P34969); assay: Inhibitory activity against 5HT7 receptor
D(3) dopamine receptor = D(3) dopamine receptor (Homo sapiens, UniProt P35462); assay: Inhibitory activity against dopamine D3 receptor
[11] = target: Sodium-dependent serotonin transporter (Homo sapiens) (UniProt P31645); assay: Inhibitory activity against SERT upto 10 uM
[12] = target: T5, 5-hydroxytryptamine receptor 1A (Homo sapiens); assay: Functional activity in [35S]GTP-gamma-S assay for 5HT1A receptor
[13] = target: T2, 5-hydroxytryptamine receptor 1B; assay: Functional activity in FLIPR assay for 5HT1B receptor
[14] = target: Sodium-dependent dopamine transporter (Homo sapiens) (UniProt Q01959); assay: Inhibitory activity against DAT upto 10 uM
[15] = target: Sodium-dependent noradrenaline transporter (Homo sapiens) (UniProt P23975); assay: Inhibitory activity against NET upto 10 uM
Sequence of Sodium-dependent noradrenaline transporter (Homo sapiens) (P23975 whole entry): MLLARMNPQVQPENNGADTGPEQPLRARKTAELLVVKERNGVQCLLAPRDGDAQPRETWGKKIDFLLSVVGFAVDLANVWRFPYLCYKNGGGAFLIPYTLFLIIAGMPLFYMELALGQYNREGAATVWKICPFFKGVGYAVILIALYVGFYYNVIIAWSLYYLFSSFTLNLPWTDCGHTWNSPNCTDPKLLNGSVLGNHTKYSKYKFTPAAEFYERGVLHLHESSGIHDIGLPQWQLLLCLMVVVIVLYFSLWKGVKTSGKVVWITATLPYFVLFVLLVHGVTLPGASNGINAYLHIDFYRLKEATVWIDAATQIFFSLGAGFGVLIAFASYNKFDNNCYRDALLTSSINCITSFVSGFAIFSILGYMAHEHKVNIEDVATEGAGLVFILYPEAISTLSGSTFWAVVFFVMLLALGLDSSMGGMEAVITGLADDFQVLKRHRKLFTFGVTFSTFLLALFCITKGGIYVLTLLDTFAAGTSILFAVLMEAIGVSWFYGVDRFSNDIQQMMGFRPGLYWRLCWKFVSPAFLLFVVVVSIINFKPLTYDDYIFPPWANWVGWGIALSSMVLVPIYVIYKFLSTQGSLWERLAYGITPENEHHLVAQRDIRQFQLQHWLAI

T2 sequence (P28222 whole entry): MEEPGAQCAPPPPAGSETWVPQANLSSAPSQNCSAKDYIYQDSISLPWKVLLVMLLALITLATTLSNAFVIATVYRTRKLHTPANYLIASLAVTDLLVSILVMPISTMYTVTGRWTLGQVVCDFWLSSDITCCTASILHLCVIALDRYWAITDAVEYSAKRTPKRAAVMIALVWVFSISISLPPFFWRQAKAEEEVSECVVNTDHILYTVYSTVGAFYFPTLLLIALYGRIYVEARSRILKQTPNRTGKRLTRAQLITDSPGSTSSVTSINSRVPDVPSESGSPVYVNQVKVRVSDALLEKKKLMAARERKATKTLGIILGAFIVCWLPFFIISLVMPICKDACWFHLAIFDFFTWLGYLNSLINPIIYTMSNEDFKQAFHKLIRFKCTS
Sequence of 5-hydroxytryptamine receptor 7 (P34969 whole entry): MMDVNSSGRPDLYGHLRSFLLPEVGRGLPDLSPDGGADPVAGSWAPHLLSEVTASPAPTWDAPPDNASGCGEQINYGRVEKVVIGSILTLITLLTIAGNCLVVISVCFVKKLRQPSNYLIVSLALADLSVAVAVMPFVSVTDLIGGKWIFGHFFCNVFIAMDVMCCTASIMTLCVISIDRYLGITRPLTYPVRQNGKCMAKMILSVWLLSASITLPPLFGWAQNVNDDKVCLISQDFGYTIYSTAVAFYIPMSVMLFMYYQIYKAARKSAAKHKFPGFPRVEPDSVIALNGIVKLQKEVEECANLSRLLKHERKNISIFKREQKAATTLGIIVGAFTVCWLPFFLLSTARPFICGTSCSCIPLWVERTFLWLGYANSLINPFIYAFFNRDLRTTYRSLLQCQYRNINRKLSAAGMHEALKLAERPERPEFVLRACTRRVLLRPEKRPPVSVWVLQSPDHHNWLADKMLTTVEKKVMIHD
Sequence of Sodium-dependent dopamine transporter (Homo sapiens) (Q01959 whole entry): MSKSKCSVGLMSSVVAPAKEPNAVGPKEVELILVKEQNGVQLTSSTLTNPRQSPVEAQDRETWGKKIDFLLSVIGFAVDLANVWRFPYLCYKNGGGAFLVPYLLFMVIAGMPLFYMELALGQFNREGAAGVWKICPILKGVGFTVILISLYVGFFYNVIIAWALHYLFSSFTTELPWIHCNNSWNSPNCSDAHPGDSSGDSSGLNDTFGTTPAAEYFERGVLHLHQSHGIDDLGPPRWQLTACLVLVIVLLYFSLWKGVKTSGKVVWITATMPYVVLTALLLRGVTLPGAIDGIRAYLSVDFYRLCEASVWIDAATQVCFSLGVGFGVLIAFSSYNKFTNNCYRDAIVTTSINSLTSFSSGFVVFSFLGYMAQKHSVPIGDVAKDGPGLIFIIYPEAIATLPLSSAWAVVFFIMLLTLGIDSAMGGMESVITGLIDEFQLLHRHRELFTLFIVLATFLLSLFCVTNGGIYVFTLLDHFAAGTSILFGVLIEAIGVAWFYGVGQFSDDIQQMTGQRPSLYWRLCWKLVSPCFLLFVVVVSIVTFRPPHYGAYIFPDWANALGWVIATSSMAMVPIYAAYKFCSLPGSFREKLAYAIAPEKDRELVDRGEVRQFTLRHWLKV
Sequence of Sodium-dependent serotonin transporter (Homo sapiens) (P31645 whole entry, looked up): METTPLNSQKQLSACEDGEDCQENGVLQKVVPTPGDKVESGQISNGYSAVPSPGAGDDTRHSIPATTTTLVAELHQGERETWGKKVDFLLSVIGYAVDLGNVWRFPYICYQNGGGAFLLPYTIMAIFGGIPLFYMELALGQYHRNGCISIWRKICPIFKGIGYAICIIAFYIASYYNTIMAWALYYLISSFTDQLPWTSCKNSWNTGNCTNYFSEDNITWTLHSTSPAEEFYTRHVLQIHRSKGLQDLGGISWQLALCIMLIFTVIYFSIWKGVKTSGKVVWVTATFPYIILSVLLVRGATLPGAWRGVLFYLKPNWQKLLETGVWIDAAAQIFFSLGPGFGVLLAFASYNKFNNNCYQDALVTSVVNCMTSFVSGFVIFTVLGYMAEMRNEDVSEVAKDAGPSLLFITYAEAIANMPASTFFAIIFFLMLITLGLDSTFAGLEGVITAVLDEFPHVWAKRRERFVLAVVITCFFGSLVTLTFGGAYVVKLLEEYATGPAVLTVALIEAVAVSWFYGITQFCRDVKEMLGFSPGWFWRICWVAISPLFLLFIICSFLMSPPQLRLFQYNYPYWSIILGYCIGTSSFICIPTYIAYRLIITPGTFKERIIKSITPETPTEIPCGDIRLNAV
Sequence of D(3) dopamine receptor (P35462 whole entry): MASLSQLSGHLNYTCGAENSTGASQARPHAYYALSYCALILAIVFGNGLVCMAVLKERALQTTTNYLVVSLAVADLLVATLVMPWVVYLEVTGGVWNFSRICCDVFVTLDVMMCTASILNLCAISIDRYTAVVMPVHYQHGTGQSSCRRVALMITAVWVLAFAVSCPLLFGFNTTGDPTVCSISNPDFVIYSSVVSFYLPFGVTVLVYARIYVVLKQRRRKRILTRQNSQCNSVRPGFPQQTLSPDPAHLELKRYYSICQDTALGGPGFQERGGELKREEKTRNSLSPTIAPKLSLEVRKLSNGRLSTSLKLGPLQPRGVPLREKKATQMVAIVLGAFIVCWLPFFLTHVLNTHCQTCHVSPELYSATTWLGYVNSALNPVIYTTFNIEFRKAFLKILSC
Sequence of 5-hydroxytryptamine receptor 1B (Rattus norvegicus, UniProt P28564) (P28564 whole entry): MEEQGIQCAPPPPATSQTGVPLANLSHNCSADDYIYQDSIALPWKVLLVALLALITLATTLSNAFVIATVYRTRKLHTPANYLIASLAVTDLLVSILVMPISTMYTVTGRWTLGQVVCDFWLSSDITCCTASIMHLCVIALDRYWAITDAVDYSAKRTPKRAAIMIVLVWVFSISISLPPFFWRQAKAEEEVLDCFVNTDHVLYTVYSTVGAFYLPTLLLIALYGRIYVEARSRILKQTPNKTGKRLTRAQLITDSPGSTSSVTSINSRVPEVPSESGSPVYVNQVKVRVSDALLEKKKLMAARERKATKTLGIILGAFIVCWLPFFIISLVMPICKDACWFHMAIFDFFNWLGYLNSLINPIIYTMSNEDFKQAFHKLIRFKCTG
Sequence of 5-hydroxytryptamine receptor 5A (P47898 whole entry): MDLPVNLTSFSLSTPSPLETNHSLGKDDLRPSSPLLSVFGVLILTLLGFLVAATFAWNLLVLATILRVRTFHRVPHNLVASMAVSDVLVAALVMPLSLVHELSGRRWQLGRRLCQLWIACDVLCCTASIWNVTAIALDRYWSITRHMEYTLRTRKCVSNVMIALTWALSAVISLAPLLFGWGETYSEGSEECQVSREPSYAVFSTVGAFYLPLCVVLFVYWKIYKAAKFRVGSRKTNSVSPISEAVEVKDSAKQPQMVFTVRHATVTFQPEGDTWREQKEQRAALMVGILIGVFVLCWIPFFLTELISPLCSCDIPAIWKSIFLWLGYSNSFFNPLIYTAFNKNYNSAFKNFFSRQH

Row | Compound | Ki [1] [nM] | Ki [2] [nM] | Ki [3] [nM] | Emax [6] [%] | Emax [7] [%] | Activity ([13]; filed as antagonist) | Activity ([12]; filed as partial agonist) | Activity ([13]; filed as partial agonist) | IC50 [1] [nM] | IC50 [2] [nM] | Ki [4] [nM] | Ki [5] [nM] | Ki [8] [nM] | Ki [9] [nM] | Ki [10] [nM] | Ki (D(3) dopamine receptor) [nM] | Activity [11] | Activity ([12]; filed as antagonist) | Activity [14] | Activity [15]
1 | CN1CCc2c(sc3ncn(CCN4CCN(c5ccnc6ccccc56)CC4)c(=O)c23)C1 | 6.5 | 9.7 | 118.1 | 9 | 6 | Antagonist |  |  | 1300 | 85 | 23 | 117 | 5500 | > 1000 | 4480 | 1.3 | inactive | Antagonist | inactive | inactive
2 | CN1CCc2c(sc3ncn(CCN4CCN(c5ccccc5Oc5ccccc5)CC4)c(=O)c23)C1 | 0.9 | 1.1 | 0.5 | 20 | 10 |  | Partial agonist | Partial agonist |  |  |  |  |  |  |  |  |  |  |  | 
3 | COc1ccc(Cl)cc1N1CCN(CCn2cnc3sc4c(c3c2=O)CCN(C)C4)CC1 | 3 | 70.3 | 0.1 | < 20 | < 10 | Antagonist |  |  |  |  |  |  |  |  |  |  |  | Antagonist |  | 

Now those with a lower Ki [1], led by results:

Row | Ki [1] [nM] | Ki [2] [nM] | Ki [3] [nM] | Emax [6] [%] | Emax [7] [%] | Activity ([13]; filed as antagonist) | Activity ([12]; filed as partial agonist) | Activity ([13]; filed as partial agonist) | Compound | IC50 [1] [nM] | IC50 [2] [nM] | Ki [4] [nM] | Ki [5] [nM] | Ki [8] [nM] | Ki [9] [nM] | Ki [10] [nM] | Ki (D(3) dopamine receptor) [nM] | Activity [11] | Activity ([12]; filed as antagonist) | Activity [14] | Activity [15]
4 | 0.7 | 2.5 | 0.1 | < 20 | 10 | Antagonist | Partial agonist |  | CC(C)Oc1ccccc1N1CCN(CCn2cnc3sc4c(c3c2=O)CCN(C)C4)CC1 |  |  |  |  |  |  |  |  |  |  |  | 
5 | 0.3 | 0.1 | 1.2 | 20 | 10 |  | Partial agonist | Partial agonist | CN1CCc2c(sc3ncn(CCN4CCN(c5cccc6ccncc56)CC4)c(=O)c23)C1 |  |  |  |  |  |  |  |  |  |  |  | 
